The compounds below were run against T1, neuraminidase (NA), from Sigma-Aldrich. Conditions: read-out: HPLC-FLD.
T1 construct: gene nanH
Assay type: biochemical

Row | Compound | IC50 [mM]
1 | COC(=O)C1=CO[C@@H](O[C@@H]2O[C@H](CO)[C@@H](O)[C@H](O)[C@H]2O)[C@@H]2C(CO)=CC[C@H]12 [compound 1, Geniposide] | 0.97 ± 0.09
2 | O=C(/C=C/c1ccc(O)c(O)c1)O[C@@H]1C[C@](O)(C(=O)O)C[C@@H](O)[C@H]1O [compound 3, Chlorogenic acid] | 2.56 ± 0.06
3 | O=C(/C=C/c1ccc(O)c(O)c1)O[C@H]1[C@H](O)C[C@](O)(C(=O)O)C[C@H]1O [compound 4, Cryptochlorogenin acid] | 2.2 ± 0.01
4 | O=C(/C=C/c1ccc(O)c(O)c1)O[C@@H]1[C@H](O)C[C@@](O)(C(=O)O)C[C@H]1OC(=O)/C=C/c1ccc(O)c(O)c1 [compound 6, Isochlorogenic acid C] | 1.17 ± 0.05
5 | O=C(O)[C@H]1O[C@@H](Oc2cc3oc(-c4ccccc4)cc(=O)c3c(O)c2O)[C@H](O)[C@@H](O)[C@@H]1O [compound 7, Baicalin] | 0.5 ± 0.04
6 | O=c1cc(-c2ccccc2)oc2cc(O)c(O)c(O)c12 [compound 8, Baicalein] | 0.11 ± 0.01
7 | CC(C)=CCOc1c2ccoc2cc2oc(=O)ccc12 [compound 9, Isoimpemtorin] | 0.66 ± 0.16
8 | O=c1ccc2cc3ccoc3cc2o1 [compound 10, Psoralen] | 1 ± 0.63
9 | O=c1ccc2cc3ccoc3c(O)c2o1 [compound 12, Xanthotol] | 1.05 ± 0.07
10 | COc1c2ccoc2cc2oc(=O)ccc12 [compound 13, Bergapten] | 2.8 ± 0.16
11 | COc1ccc2ccc(=O)oc2c1CC=C(C)C [compound 14, Osthole] | 2.14 ± 0.15

Same assay, conditions: read-out: NA enzyme-based inhibitory assays

Row | Compound | IC50 [mM]
12 | COC(=O)C1=CO[C@@H](O[C@@H]2O[C@H](CO)[C@@H](O)[C@H](O)[C@H]2O)[C@H]2[C@@H]1[C@H](O)C[C@]2(C)O [compound 2, Shanzhiside methyl ester] | 0.01

Target: T1, neuraminidase (NA), from Sigma-Aldrich
Assay type: biochemical
Conditions: read-out: HPLC-FLD
Remark: another data set of the same source

Row | Compound | IC50 [mM]
13 | O=c1ccc2ccc3occc3c2o1 [compound 11, Angelicin] | 2.55 ± 0.38
